From patent publication US10695333B2 (NOVARTIS AG, priority 2017, dated 2020)
“And” between values parts separate entries of the source, which are not always exact repeats. Identical values can stand only once. Marks after values point to notes of the source that are not given here.

Experiments:
MCF-7 xenograft [1] = test: LSZ102 with alpelisib in orthotopic MCF-7 breast cancer model in mice; format: in vivo, mouse; conditions: Day 62
ERα = biological target: T1, ERα (Homo sapiens, UniProt P03372); conditions: MCF-7 parental cells, 24 hr treatment
T1 sequence (P03372 1-595): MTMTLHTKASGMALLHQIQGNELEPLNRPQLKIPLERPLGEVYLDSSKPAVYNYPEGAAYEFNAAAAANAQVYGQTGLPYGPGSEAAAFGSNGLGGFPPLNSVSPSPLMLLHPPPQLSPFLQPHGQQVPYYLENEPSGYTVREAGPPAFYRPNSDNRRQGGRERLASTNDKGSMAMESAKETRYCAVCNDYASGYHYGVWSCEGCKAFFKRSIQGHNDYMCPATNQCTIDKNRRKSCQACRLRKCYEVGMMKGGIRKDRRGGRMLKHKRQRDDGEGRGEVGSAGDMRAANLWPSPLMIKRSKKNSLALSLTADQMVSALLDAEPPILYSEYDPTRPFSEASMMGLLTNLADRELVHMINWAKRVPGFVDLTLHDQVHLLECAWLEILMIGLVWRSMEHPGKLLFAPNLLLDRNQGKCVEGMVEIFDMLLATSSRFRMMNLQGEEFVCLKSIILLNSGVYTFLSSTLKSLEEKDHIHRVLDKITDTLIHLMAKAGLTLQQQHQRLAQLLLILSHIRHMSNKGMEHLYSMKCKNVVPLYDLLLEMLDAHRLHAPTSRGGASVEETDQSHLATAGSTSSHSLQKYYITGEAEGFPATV

HBRX1298 xenograft = test: ER+ primary breast cancer model HBRX1298 in NSG mice; format: in vivo, mouse; conditions: Day 63
Procedure: HBRX1298 tumors were established in NSG female mice by injection of a tumor brei into the inguinal mammary fat pad area. Mice were implanted with 0.72 mg estradiol/90-day release pellets several days prior to cell implantation. […] The 80 mg/kg QD dose inhibited tumor volumes close to the extent observed in mice with estradiol pellet removal (% ΔT/ΔC=32% and 21%, respectively; p<0.05).

[2] = tested on: MCF-7 parental (ER wildtype) cells; test: cells; conditions: Homo sapiens, MCF7, 168 h, read-out: MCF-7 proliferation Ave IC50, ESR1 WT
Procedure: Cell viability was determined by CellTiter-Glo (CTG) assay after 7 days of compound treatment. […] IC50 nM values were calculated using the XLfit software and are defined as the inflection point of the fitted inhibition curves.

MCF-7 xenograft [3] = test: Orthotopic MCF-7 xenograft model in NSG mice; format: in vivo, mouse; conditions: for Tumor response in words: LSZ102 20 mg/kg QD, tamoxifen 60 mg/kg, fulvestrant 5 mg/mouse
Procedure: Mice were supplemented with estradiol (0.72 mg estradiol/90-day release pellets) to further support MCF-7 tumor growth several days prior to cell implantation.

MCF-7 xenograft [4] = test: Dose fractionation study in mice with MCF-7 xenografts; format: in vivo, mouse; conditions: for Tumor response ΔT/ΔC / Tumor response Regression: Day 61
[5] = Phase I/Ib study, safety and tolerability; format: in vivo, human
Excerpt: (§1) Eligible patients, ≥18 years old, have histologically confirmed ER+ breast cancer that has progressed after endocrine therapy for metastatic or locally advanced disease or recurrence while on, or within 12 months of the end of adjuvant treatment with an aromatase inhibitor. […] As of Jul. […] As of Jul. 23, 2018, 13 patients continued ongoing treatment and 3 patients discontinued due to progressive disease.

[6] = tested on: ER regulated transcripts GREB1 and PGR; test: GREB1 and PGR mRNA in MCF-7 tumors after final dose; format: in vivo, mouse; conditions: higher dose levels, tumors collected 24 hours after final treatment on day 61, normalized to B2M
Excerpt: Data is plotted for individual animals and is normalized to expression of beta-2 microglobulin (B2M).

[7] = tested on: ER target genes GREB1 and PGR; test: qRT-PCR of ER target genes in MCF-7 WT cells
clinical = conditions: human, in vivo
Excerpt: Secondary objectives are to evaluate preliminary anti-tumor activity and looking at overall response rate (ORR), duration of response (DOR), progression-free survival (PFS), disease control rate (DCR), pharmacokinetics (PK) and pharmacodynamics (PD).

[8] = tested on: advanced or metastatic ER+ breast cancer; test: Phase I/Ib study, anti-tumor activity; format: in vivo, human
Excerpt: as §1

[9] = All Arm A treatment period patients (N = 73)
[10] = LSZ102 single agent arm (n = 74)
[11] = All LSZ102 single agent arm patients, evaluable n = 72
[12] = 60 mg/kg PO QD x 5 days x QWeek, Day 48

With `Cc1nc(NC(=O)N2CCC[C@H]2C(N)=O)sc1-c1ccnc(C(C)(C)C(F)(F)F)c1` [BYL719, reference compound] the “Tumor response ΔT/ΔC” value (MCF-7 xenograft [1]; BYL719 20 mg/kg QD PO) was 38%.

In the case of `C[C@]12CC[C@@H]3c4ccc(O)cc4C[C@@H](CCCCCCCCC[S+]([O-])CCCC(F)(F)C(F)(F)F)[C@H]3[C@@H]1CC[C@@H]2O` (some centres unmarked) [Fulvestrant, reference compound], the “ER protein levels (immunoblot)” value (ERα) is reported as “significantly reduce ER protein levels”, the “Tumor response ΔT/ΔC” value (HBRX1298 xenograft; 5 mg/mouse SC QWeek) is reported as 48* % and the IC50 [2] is reported as 2.6 nM. For the same molecule, the “Tumor response ΔT/ΔC” value (MCF-7 xenograft [3]; 5 mg/mouse SC QWeek, Day 48) was 24* %, the “Tumor response in words” value (MCF-7 xenograft [3]) was “suppression of growth” and the “Tumor response ΔT/ΔC” value (MCF-7 xenograft [4]; 5 mg/mouse SC QWeek) was 18* %.

With `CC(F)(F)c1cc(F)ccc1-c1sc2cc(O)ccc2c1Oc1ccc(/C=C/C(=O)O)cc1` [LSZ102, (E)-3-(4-((2-(2-(1,1-difluoroethyl)-4-fluorophenyl)-6-hydroxybenzo[b]thiophen-3-yl)oxy)phenyl)acrylic acid] the “DLT alanine aminotransferase increase, number of patients” value ([5]; 450 mg QD with food group) was “one”, the “DLT aspartate aminotransferase increase, number of patients” value ([5]; 450 mg QD with food group) was “one” and the “DLT vomiting, number of patients” value ([5]; 600 mg QD fasted group) was “one”. For the same molecule, the “DLT diarrhea, number of patients” value ([5]; 900 mg QD fasted group) was “two”, the “Constipation, G1” value [5, 9] was 7 (9.6) n (%) and the “Constipation, G2” value [5, 9] was 1 (1.4) n (%). For the same molecule, the “Constipation, G3” value [5, 9] was 0 n (%), the “Decrease appetite, G1” value [5, 9] was 11 (15.1) n (%) and the “Decrease appetite, G2” value [5, 9] was 2 (2.7) n (%). The “Decrease appetite, G3” value [5, 9] was 0 n (%), the “Diarrhea, G1” value [5, 9] was 25 (34.2) n (%) and the “Diarrhea, G2” value [5, 9] was 11 (15.1) n (%). The “Diarrhea, G3” value [5, 9] was 3 (4.1) n (%), the “Fatigue, G1” value [5, 9] was 5 (6.8) n (%) and the “Fatigue, G2” value [5, 9] was 3 (4.1) n (%). The “Fatigue, G3” value [5, 9] was 0 n (%), the “Nausea, G1” value [5, 9] was 32 (43.8) n (%) and the “Nausea, G2” value [5, 9] was 10 (13.7) n (%). The “Nausea, G3” value [5, 9] was 2 (2.7) n (%), the “Suspected related AEs, Total, G1” value [5, 9] was 38 (52.1) n (%) and the “Suspected related AEs, Total, G2” value [5, 9] was 20 (27.4) n (%). For the same molecule, the “Suspected related AEs, Total, G3” value [5, 9] was 7 (9.6) n (%), the “Vomiting, G1” value [5, 9] was 14 (19.2) n (%) and the “Vomiting, G2” value [5, 9] was 4 (5.5) n (%). The “Vomiting, G3” value [5, 9] was 1 (1.4) n (%), the “Discontinuation due to adverse event” value [5, 10] was 2 (2.7) n (%) and the Tolerability ([5]; oral single agent, doses up to 600 mg QD and up to 300 mg BID) was “well tolerated”. The “Drug-related diarrhea, any grade” value ([5]; single agent Arm A) was 53.4%, the “Drug-related nausea, any grade” value ([5]; single agent Arm A) was 60.2% and the “Drug-related vomiting, any grade” value ([5]; single agent Arm A) was 26.1%. For the same molecule, the “Drug-related Grade 3 vomiting” value ([5]; single agent Arm A, 1 patient) was 1.4%, the “Drug-related Grade 3 nausea” value ([5]; single agent Arm A, 2 patients) was 2.7% and the “Drug-related Grade 3 diarrhea” value ([5]; single agent Arm A, 3 patients) was 4.1%. The “Dose limiting toxicities (DLTs), patients” value ([5]; single agent, all dose groups, four patients) was 5.9%, the “Patients requiring dose reduction due to AEs” value ([5]; single agent, all gastrointestinal toxicities) was “seven” and the “Tumor response ΔT/ΔC” value (HBRX1298 xenograft; 20 mg/kg PO QD) was 45* %. The “Tumor response ΔT/ΔC” value (HBRX1298 xenograft; 80 mg/kg PO QD) was 32%, the IC50 [2] was 5.2 nM and the “Inhibition of GREB1 and PGR mRNA levels in tumors” value [6] was “stronger inhibition”. The “Tumor response ΔT/ΔC” value (MCF-7 xenograft [3]; 1 mg/kg PO QD, Day 48) was 56%, the “Tumor response ΔT/ΔC” value (MCF-7 xenograft [3]; 3 mg/kg PO QD, Day 48) was 51% and the “Tumor response ΔT/ΔC” value (MCF-7 xenograft [3]; 10 mg/kg PO QD, Day 48) was 25%. The “Tumor response ΔT/ΔC” value (MCF-7 xenograft [3]; 20 mg/kg PO QD, Day 48) was 2.4% and 2* %, the “Tumor response in words” value (MCF-7 xenograft [3]) was “tumor stasis was achieved and maintained for 48 days” and the “Tumor response ΔT/ΔC” value (MCF-7 xenograft [4]; 5 mg/kg PO BID) was 11* %. The “Tumor response ΔT/ΔC” value (MCF-7 xenograft [4]; 10 mg/kg PO BID) was −1* %, the “Tumor response ΔT/ΔC” value (MCF-7 xenograft [4]; 10 mg/kg PO QD) was 16* % and the “Tumor response Regression” value (MCF-7 xenograft [4]; 20 mg/kg PO QD) was 5* %. For the same molecule, the “Tumor response ΔT/ΔC” value (MCF-7 xenograft [4]; 20 mg/kg PO QD) was −2* %, the “Tumor response Regression” value (MCF-7 xenograft [4]; 40 mg/kg PO BID) was 21* % and the “Tumor response ΔT/ΔC” value (MCF-7 xenograft [4]; 40 mg/kg PO BID) was −8* %. For the same molecule, the “Tumor response Regression” value (MCF-7 xenograft [4]; 80 mg/kg PO QD) was 31* %, the “Tumor response ΔT/ΔC” value (MCF-7 xenograft [4]; 80 mg/kg PO QD) was −11* % and the “Efficacy of QD dosing versus split-dose BID dosing” value (MCF-7 xenograft [4]; MCF-7 xenografts, FIG. 8A) was “equivalent efficacy”. For the same molecule, the “Tumor response ΔT/ΔC” value (MCF-7 xenograft [1]; LSZ102 10 mg/kg QD PO, 10 mg/kg) was 13%, the “ESR1 mRNA levels” value [7] was “not significantly reduced” and the “mRNA expression of GREB1 and PGR” value [7] was “dose response inhibition”. The “Increase in exposure (AUC) with high fat, high calorie meal compared to fasted” value (clinical) was roughly 2 fold, the Exposure versus dose (clinical; po) was “dose-proportional increases in LSZ102 exposure” and the Tmax (clinical; po) was 2 to 3 h. The half-life (clinical; po) was 186 to 336 min, the “Complete response (CR)” value [8, 11] was 0 n (%) and the “Disease control rate (DCR)” value [8, 11] was 27 (37.5%) n (%). The Non-CR/Non-PD [8, 11] was 7 (9.7) n (%), the “Overall response rate (ORR)” value [8, 11] was 1 (1.4) n (%) and the “Partial response (PR)” value [8, 11] was 1 (1.4) n (%). For the same molecule, the “Progressive disease (PD)” value [8, 11] was 40 (55.6) n (%), the Response unknown [8, 11] was 6 (8.3) n (%) and the “Discontinuation due to progressive disease” value [8, 10] was 59 (79.7) n (%). For the same molecule, the Disease control rate ([8]; single-agent LSZ102) was 37.5%.

With `CC/C(=C(\c1ccccc1)c1ccc(OCCN(C)C)cc1)c1ccccc1` [Tamoxifen, reference compound] the “Tumor response ΔT/ΔC” value (HBRX1298 xenograft; 40 mg/kg PO QD) was 59%, the “Tumor response Regression” value (MCF-7 xenograft [3]; [12]) was 1* % and the “Tumor response ΔT/ΔC” value (MCF-7 xenograft [3]; [12]) was −0.8* %. For the same molecule, the “Tumor response in words” value (MCF-7 xenograft [3]) was “tumor stasis”, the “Tumor response Regression” value (MCF-7 xenograft [4]; 60 mg/kg PO 5QW) was 11* % and the “Tumor response ΔT/ΔC” value (MCF-7 xenograft [4]; 60 mg/kg PO 5QW) was −4* %.
